The values that follow come from patent EP0955294B1, “Imidazolyl-alkenoic acid” (SMITHKLINE BEECHAM CORPORATION, priority 1989, dated 1990).

The structures appear in SMILES notation. Like-named read-outs stand apart in the source and are kept apart here.

Experiment [1] deals with pressor response to exogenous angiotensin II. The experiment is described as follows: inhibition of pressor response to angiotensin II in conscious rats. The experiment is classed as in vivo. To be noted: Rattus norvegicus, dose producing 50% inhibition of the control response to angiotensin II, read-out: IC50 (the source's name). As for the experimental part:
(§1) Angiotensin II antagonist activity of the compounds of Formula (I) is assessed by in vitro and in vivo methods. In vitro antagonist activity is determined by the ability of the compounds to compete with ^125I-angiotensin II for binding to vascular angiotensin It receptors and by their ability to antagonize the contractile response to angiotensin II in the isolated rabbit aorta. In vivo activity is evaluated by the efficacy of the compounds to inhibit the pressor response to exogenous angiotensin II in conscious rats and to lower blood pressure in a rat model of […] hypertension.
Rats are prepared with indwelling femoral arterial and venous catheters and a stomach tube (Gellai et al., Kidney Int. 15:419, 1979). Two to three days following surgery the rats are placed in a restrainer and blood pressure is continuously monitored from the arterial catheter with a pressure transducer and recorded on a polygraph. The change in mean arterial pressure in response to intravenous injections of […] angiotensin II is compared at various time points prior to and following the administration of the compounds intravenously or orally at doses of 0.1 to 300 mg/kg. The dose of compound needed to produce 50% inhibition of the control response to angiotensin II (IC50) is used to estimate the potency of the compounds.

Experiment [2] deals with conscious rats made renin-dependent hypertensive. The experiment is described as follows: antihypertensive activity in renal artery ligated (renin-dependent hypertensive) rats. The experiment is classed as in vivo. To be noted: dose needed to reduce mean arterial pressure by 30 mm Hg. The protocol:
as §1
The antihypertensive activity of the compounds is measured by their ability to reduce mean arterial pressure in conscious rats made renin-dependent hypertensive by ligation of the left renal artery (Cangiano et al., J. Pharmacol. Exp. Ther. 208:310, 1979). Renal artery ligated rats are prepared with indwelling catheters as described above. Seven to eight days following renal artery ligation, the time at which plasma renin levels are highest, the conscious rats are placed in restrainers and mean arterial pressure is continuously recorded prior to and following the administration of the compounds intravenously or orally. The dose of compound needed to reduce mean arterial pressure by 30 mm Hg (IC50) is used as an estimate of potency.

With `CCCCc1ncc(/C=C(\Cc2cccs2)C(=O)O)n1Cc1ccccc1Cl` [Example 1, (E)-3-[2-n-Butyl-1-{(2-chlorophenyl)methyl}-1H-imidazol-5-yl]-2-(2-thienyl)methyl-2-propenoic Acid], the ED50 in experiment [1] (iv, i.v.) is 3.6 mg/kg; in experiment [1] (po, orally), 44 mg/kg. The ED (30 mm Hg) in experiment [2] (Rattus norvegicus, po, orally, read-out: IC50) was 8 mg/kg. Besides, in experiment [2] (i.v.), the IC50 amounted to 1.80 mg/kg.
